The subject of data set [1] is Staphyrococcus aureus (S. aureus, ATCC 6538P). The data set can be described thus: Minimum bactericidal concentration (disinfecting effect), 1 minute contact. It is filed as cell-based. Particulars: contact 1 minute, culture 37° C. 20 hours. As to the method:
(§1) The disinfecting effect was evaluated in accordance with the following methods.
(§2) Seven microorganisms, i.e., Staphyrococcus aureus (S. aureus, ATCC 6538P), methicillin-resistant S. aureus (MRSA IID 1677), methicillin-resistant S. aureus (MRSA of a clinically isolated strain), Escherichia coli (E. coli, IFO 3301), Klebsiella pneumoniae (pneumoniae, IFO ATCC 4352), Pseudomonus aeruginosa (P. aeruginosa, IFO 3080) and Serratia marcescens (S. marcescens of a clinically isolated strain), were used for the test.
(§3) A test microorganism in an inoculating loop to streak a portion of 8 ml of a culture medium of soybean casein digest (SCD) on the surface and cultured at 37° C. for 18 hours. The obtained medium in an amount of 1 ml was diluted with the SCD culture medium to 1/10 of the original concentration. The diluted medium in an amount of 2 ml was brought into contact with 100 ml of the SCD culture medium. The obtained medium was cultured at 37° C. for 2 hours except that the medium containing P. aeruginosa was cultured for 4 hours and a liquid of a test microorganism was prepared. The liquid of a test microorganism contained 10^6 to 10^8 live microorganisms per 1 ml of the liquid.
(§4) A series of solutions containing a composition of a sterilizing disinfectant were prepared by dilution with a physiological saline in a manner such that each solution was diluted to one half the concentration to prepare a solution having the next lower concentration. The solutions of a series each in an amount of 10 ml were separately placed into test tubes, treated for disinfection in an autoclave and mixed with a liquid of a test microorganism in an amount of 0.1 ml. After the sterilizing disinfectant and the test microorganism were kept in contact with each other for 1 minute, the obtained liquid for inoculation in an amount of 0.1 ml was added to each of three SCD-LP (lecithin polysolvate) culture media (9 ml, each) which had been disinfected in advance. After the inoculated media were cultured at 37° C. for 20 hours, the presence or the absence of turbidity in the media was examined. When the medium was transparent, it was decided that no growth of the microorganism could be recognized and the result for this medium was expressed as −. When the medium was turbid, it was decided that growth of the microorganism could be recognized and the result for this medium was expressed as+. […] The minimum concentration of the composition of a sterilizing disinfectant which gave the result of − was used as the minimum bactericidal concentration (MBC).

Data set [2] has as its system Serratia marcescens (S. marcescens of a clinically isolated strain). Described as above. It is filed as cell-based. Particulars: contact 1 minute, culture 37° C. 20 hours. How it is done:
as §1, §2, §3, §4

The subject of data set [3] is Pseudomonus aeruginosa (P. aeruginosa, IFO 3080). The data set is described as above. The class given is cell-based. Particulars: contact 1 minute, culture 37° C. 20 hours. As to the method:
as §1, §2, §3, §4

Data set [4] has as its system Klebsiella pneumoniae (pneumoniae, IFO ATCC 4352). Described as above. It is filed as cell-based. Particulars: K. pneumoniae; contact 1 minute; culture 37° C. 20 hours. How it is done:
as §1, §2, §3, §4

Data set [5] relates to Escherichia coli (E. coli, IFO 3301). The description is as above. The class given is cell-based. To be noted: contact 1 minute, culture 37° C. 20 hours. How it is done:
as §1, §2, §3, §4

Data set [6] relates to methicillin-resistant S. aureus (MRSA IID 1677). The data set is described as above. It is filed as cell-based. To be noted: contact 1 minute, culture 37° C. 20 hours. As to the method: as §1, §2, §3, §4
The test system of data set [7] is methicillin-resistant S. aureus (MRSA of a clinically isolated strain). The description is as above. The class given is cell-based. To be noted: contact 1 minute, culture 37° C. 20 hours. As to the method: as §1, §2, §3, §4
The nature of data set [8]: Test of skin stimulation (sealed filter paper on inner side of left upper arm). To be noted: for primary stimulation (skin stimulation): 0.02 ml, one per person. It is filed as in vivo, human. The arrangement: key to primary stimulation (skin stimulation): −: negative (no reaction); ±: rubedo alone; +: rubedo and humectation or papula; ++: rubedo, edema and marked papula or small blisters. How it is done:
The test of skin stimulation was conducted in accordance with the following method.
A sterilizing disinfectant in an amount of 0.02 ml was placed on a filter paper and attached to a portion at the inner side of the left upper arm of a person in a manner such that the paper was sealed. The test was conducted with five male persons (A to E) and five female persons (F to J). The primary stimulation was evaluated 30 minutes and 24 hours after the attachment of the paper and the result was classified into four levels. The criterion for the classification was as follows:
Criterion for the Classification
−: negative (no reaction)
+: rubedo and humectation or papula
++: rubedo, edema and marked papula or small blisters

Turning to “benzalkonium chloride [Comparative Example 4]”, the Minimum batericidal concentration in data set [1] is 32 ppm; in data set [2] it was 64 ppm; in data set [3], 250 ppm; in data set [4], 64 ppm; in data set [5], 64 ppm; in data set [6], 32 ppm. The Minimum batericidal concentration in data set [7] was determined as 64 ppm.

Consider “benzalkonium chloride [Comparative Example 5]”, for which the “primary stimulation (skin stimulation)” value in data set [8] (30 minutes after attachment) was “− and ±”; in data set [8] (24 hours after attachment), “+ and ++”. Moreover, the skin disorder result in data set [8] (summary in words of the test of skin stimulation) was “marked skin disorder”.

The values above are taken from patent publication US20040062744A1, “Bactericidal disinfectant, antibacterial drug, and antibacterial material” (NICCA CHEMICAL CO., LTD., priority 2003, published 2004).
